Blank lines part the entries; values can stand above or below the compound they belong to.
Assays:
Assay in all cases: radiometric filter-binding kinase assay
TTBK1 (human) = TTBK1 (human) (UniProt Q5TCY1)
PRKCG (human) = PRKCG (human) (UniProt P05129)
PTK6 (human) = PTK6 (human) (UniProt Q13882)
[1] = test system: OXSR1 (human), O95747 [T185E]
STK16 (human) = STK16 (human) (UniProt O75716)
ABL1 (human) = ABL1 (human) (UniProt P00519)
MYLK (human) = MYLK (human) (UniProt Q15746)
TEK (human) = TEK (human) (UniProt Q02763)
STK33 (human) = STK33 (human) (UniProt Q9BYT3)
TESK1 (human) = TESK1 (human) (UniProt Q15569)
Chain of TESK1 (human) (Q15569 whole entry, looked up): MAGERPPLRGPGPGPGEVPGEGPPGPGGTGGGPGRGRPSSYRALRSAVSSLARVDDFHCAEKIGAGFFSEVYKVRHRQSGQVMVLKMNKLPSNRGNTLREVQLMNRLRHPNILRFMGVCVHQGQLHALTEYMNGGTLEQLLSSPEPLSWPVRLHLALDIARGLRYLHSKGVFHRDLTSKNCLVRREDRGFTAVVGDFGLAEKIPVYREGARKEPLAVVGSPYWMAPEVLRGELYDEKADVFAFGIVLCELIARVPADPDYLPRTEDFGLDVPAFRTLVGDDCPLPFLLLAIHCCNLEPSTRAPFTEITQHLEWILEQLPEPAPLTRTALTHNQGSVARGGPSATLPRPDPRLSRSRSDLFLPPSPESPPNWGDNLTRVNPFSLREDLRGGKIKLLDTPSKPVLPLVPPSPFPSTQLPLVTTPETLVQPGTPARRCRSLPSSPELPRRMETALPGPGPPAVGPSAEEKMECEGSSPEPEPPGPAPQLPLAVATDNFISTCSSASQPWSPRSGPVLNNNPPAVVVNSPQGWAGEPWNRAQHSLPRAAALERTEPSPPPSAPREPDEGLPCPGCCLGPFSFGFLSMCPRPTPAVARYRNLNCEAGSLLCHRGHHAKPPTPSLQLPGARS

ZAP70 (human) = ZAP70 (human) (UniProt P43403)
TLK1 (human) = TLK1 (human) (UniProt Q9UKI8)
TSSK1B (human) = TSSK1B (human) (UniProt Q9BXA7)
EIF2AK3 (human) = EIF2AK3 (human) (UniProt Q9NZJ5)
Chain of EIF2AK3 (human) (Q9NZJ5 whole entry, looked up): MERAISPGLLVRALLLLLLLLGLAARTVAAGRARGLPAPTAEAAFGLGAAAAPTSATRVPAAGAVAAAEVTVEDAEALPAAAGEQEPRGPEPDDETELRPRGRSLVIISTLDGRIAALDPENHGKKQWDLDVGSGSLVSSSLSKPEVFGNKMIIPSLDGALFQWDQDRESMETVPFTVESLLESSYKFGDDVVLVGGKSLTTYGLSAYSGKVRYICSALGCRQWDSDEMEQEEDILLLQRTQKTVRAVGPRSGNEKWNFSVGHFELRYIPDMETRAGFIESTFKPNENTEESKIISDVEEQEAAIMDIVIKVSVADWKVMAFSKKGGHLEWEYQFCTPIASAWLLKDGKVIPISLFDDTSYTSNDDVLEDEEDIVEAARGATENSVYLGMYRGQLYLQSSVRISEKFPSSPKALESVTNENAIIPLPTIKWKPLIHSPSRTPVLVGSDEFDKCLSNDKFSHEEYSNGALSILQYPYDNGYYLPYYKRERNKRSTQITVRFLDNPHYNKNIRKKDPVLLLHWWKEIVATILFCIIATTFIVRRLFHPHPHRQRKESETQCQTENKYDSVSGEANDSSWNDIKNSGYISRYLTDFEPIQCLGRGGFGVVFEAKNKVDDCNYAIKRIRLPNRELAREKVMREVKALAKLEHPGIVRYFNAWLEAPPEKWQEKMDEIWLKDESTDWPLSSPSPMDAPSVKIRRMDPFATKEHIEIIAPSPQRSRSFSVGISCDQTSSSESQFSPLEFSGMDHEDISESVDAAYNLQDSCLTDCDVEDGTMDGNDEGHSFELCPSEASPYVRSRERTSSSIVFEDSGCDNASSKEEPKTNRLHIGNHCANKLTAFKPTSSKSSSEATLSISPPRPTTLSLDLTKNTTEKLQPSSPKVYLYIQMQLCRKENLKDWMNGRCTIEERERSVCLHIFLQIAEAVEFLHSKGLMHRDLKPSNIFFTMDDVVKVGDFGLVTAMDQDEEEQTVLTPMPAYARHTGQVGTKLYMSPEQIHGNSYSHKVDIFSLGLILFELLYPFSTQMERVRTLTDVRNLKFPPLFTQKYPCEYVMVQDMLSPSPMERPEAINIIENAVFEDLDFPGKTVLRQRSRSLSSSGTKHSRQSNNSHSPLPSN

IRAK1 (human) = IRAK1 (human) (UniProt P51617)
Chain of IRAK1 (human) (P51617 whole entry, looked up): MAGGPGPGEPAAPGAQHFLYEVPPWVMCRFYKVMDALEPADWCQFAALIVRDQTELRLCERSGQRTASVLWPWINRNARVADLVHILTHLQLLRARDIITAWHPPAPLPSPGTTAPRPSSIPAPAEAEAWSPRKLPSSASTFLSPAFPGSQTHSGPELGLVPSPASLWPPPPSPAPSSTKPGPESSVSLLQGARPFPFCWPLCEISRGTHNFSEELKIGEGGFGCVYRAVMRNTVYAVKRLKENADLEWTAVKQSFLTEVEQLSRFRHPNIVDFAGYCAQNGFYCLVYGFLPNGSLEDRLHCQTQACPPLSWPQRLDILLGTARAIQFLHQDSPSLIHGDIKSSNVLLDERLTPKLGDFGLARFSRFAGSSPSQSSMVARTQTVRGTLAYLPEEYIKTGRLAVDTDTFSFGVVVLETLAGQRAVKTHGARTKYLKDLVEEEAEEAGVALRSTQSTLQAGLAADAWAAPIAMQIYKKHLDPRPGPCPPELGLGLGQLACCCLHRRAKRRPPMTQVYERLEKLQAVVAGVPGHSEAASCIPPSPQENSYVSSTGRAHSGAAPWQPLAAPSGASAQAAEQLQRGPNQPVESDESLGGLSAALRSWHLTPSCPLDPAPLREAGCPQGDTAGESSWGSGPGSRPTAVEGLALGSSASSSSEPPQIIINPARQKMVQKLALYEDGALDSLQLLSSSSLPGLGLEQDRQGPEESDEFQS

Chain of MYLK (human) (Q15746 whole entry, looked up): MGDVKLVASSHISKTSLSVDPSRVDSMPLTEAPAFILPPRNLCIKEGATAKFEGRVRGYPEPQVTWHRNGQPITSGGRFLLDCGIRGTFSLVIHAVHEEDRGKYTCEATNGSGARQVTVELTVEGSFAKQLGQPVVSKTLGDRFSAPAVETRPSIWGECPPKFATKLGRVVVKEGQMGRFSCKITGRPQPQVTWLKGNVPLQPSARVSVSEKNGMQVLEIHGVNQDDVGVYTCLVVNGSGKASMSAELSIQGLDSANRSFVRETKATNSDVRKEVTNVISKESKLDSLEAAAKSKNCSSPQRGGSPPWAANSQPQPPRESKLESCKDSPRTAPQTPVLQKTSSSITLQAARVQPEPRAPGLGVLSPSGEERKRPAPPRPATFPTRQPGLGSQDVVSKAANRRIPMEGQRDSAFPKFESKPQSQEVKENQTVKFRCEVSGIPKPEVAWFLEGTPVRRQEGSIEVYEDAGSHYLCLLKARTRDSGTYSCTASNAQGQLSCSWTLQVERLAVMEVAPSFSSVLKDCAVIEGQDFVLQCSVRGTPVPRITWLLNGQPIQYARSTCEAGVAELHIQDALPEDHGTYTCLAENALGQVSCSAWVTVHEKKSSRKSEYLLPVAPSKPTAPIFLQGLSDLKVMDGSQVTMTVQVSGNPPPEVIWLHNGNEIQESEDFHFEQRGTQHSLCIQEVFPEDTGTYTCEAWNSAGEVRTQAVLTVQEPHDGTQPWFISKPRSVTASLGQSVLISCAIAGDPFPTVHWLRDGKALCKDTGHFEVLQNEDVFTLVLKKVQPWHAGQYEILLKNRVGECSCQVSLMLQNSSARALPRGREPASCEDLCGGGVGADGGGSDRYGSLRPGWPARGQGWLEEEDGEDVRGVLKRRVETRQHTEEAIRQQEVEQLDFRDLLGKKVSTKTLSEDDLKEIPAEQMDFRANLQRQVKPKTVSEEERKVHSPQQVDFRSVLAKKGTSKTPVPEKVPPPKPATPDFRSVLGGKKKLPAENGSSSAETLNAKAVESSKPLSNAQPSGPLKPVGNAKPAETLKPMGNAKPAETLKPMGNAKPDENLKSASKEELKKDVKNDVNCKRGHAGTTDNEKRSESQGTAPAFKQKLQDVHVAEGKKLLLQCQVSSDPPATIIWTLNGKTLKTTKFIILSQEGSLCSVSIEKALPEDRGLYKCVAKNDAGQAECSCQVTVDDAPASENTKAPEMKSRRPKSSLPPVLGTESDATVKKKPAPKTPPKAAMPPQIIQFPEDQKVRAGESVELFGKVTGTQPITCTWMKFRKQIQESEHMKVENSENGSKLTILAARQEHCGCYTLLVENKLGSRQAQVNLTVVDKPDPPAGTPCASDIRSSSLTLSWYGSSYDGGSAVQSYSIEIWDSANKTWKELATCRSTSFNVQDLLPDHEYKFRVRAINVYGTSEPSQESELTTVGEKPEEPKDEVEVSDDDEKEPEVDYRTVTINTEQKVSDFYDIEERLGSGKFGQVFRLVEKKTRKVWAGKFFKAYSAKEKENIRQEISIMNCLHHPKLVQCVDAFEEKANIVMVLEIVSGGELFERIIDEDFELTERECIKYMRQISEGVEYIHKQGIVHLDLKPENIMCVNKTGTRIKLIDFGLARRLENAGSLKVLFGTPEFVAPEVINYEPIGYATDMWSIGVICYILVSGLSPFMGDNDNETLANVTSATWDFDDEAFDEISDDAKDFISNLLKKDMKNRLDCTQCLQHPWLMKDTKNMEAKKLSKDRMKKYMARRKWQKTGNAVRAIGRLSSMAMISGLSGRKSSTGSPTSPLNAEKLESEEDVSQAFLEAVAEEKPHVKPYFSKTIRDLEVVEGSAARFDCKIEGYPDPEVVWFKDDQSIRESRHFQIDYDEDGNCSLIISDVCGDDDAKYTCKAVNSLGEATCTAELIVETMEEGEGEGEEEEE
Chain of PTK6 (human) (Q13882 whole entry, looked up): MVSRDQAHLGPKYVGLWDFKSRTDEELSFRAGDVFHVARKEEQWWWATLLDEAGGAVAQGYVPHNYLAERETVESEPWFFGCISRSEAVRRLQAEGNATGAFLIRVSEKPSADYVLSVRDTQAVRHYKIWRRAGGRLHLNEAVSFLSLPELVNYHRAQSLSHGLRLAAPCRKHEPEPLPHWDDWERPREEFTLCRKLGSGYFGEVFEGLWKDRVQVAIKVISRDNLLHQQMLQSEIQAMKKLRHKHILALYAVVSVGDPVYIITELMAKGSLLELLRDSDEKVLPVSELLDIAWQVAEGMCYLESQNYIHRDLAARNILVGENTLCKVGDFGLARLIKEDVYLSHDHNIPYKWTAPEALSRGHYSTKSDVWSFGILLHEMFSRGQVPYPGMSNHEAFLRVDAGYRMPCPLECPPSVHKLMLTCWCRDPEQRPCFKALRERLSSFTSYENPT

residual activity (TTBK1 (human); compound 0.1 µM): 93%
residual activity (TTBK1 (human); compound 10.0 µM): 93%
residual activity (PRKCG (human); compound 0.1 µM): 106%
residual activity (PRKCG (human); compound 1.0 µM): 103%
residual activity (PRKCG (human); compound 10.0 µM): 115%
residual activity (PTK6 (human); compound 0.1 µM): 114%
residual activity (PTK6 (human); compound 1.0 µM): 124%
residual activity (PTK6 (human); compound 10.0 µM): 103%
residual activity ([1]; compound 0.1 µM): 98%
residual activity ([1]; compound 1.0 µM): 104%
residual activity ([1]; compound 10.0 µM): 73%
residual activity (STK16 (human); compound 0.1 µM): 100%
residual activity (STK16 (human); compound 1.0 µM): 93%
residual activity (STK16 (human); compound 10.0 µM): 84%
residual activity (ABL1 (human); compound 0.1 µM): 102%
residual activity (ABL1 (human); compound 1.0 µM): 112%
residual activity (ABL1 (human); compound 10.0 µM): 100%
residual activity (MYLK (human); compound 0.1 µM): 85%
residual activity (MYLK (human); compound 1.0 µM): 40%
residual activity (MYLK (human); compound 10.0 µM): 10%
residual activity (TEK (human); compound 0.1 µM): 101%
residual activity (TEK (human); compound 1.0 µM): 111%
residual activity (TEK (human); compound 10.0 µM): 84%
residual activity (STK33 (human); compound 0.1 µM): 103%
residual activity (STK33 (human); compound 10.0 µM): 66%
residual activity (TESK1 (human); compound 0.1 µM): 99%
residual activity (TESK1 (human); compound 1.0 µM): 102%
residual activity (TESK1 (human); compound 10.0 µM): 93%
residual activity (ZAP70 (human); compound 0.1 µM): 108%
residual activity (ZAP70 (human); compound 1.0 µM): 114%
residual activity (ZAP70 (human); compound 10.0 µM): 109%
residual activity (TLK1 (human); compound 0.1 µM): 91%
residual activity (TLK1 (human); compound 1.0 µM): 107%
residual activity (TLK1 (human); compound 10.0 µM): 90%
residual activity (TSSK1B (human); compound 0.1 µM): 84%
residual activity (TSSK1B (human); compound 1.0 µM): 56%
residual activity (TSSK1B (human); compound 10.0 µM): 12%
residual activity (EIF2AK3 (human); compound 0.1 µM): 108%
residual activity (EIF2AK3 (human); compound 1.0 µM): 101%
residual activity (EIF2AK3 (human); compound 10.0 µM): 97%
residual activity (IRAK1 (human); compound 0.1 µM): 92%
residual activity (IRAK1 (human); compound 10.0 µM): 87%
SMILES: NC(=O)c1cc(-c2ccnc(NC3CCCCC3)c2)nc(N2CCNCC2)c1

residual activity (TTBK1 (human); compound 0.1 µM): 104%
residual activity (TTBK1 (human); compound 1.0 µM): 102%
residual activity (PRKCG (human); compound 0.1 µM): 117%
residual activity (PRKCG (human); compound 1.0 µM): 71%
residual activity (PTK6 (human); compound 0.1 µM): 46%
residual activity (PTK6 (human); compound 1.0 µM): 6%
residual activity ([1]; compound 0.1 µM): 101%
residual activity ([1]; compound 1.0 µM): 71%
residual activity (STK16 (human); compound 0.1 µM): 101%
residual activity (STK16 (human); compound 1.0 µM): 42%
residual activity (ABL1 (human); compound 0.1 µM): 31%
residual activity (ABL1 (human); compound 1.0 µM): 7%
residual activity (MYLK (human); compound 0.1 µM): 100%
residual activity (MYLK (human); compound 1.0 µM): 72%
residual activity (TEK (human); compound 0.1 µM): 60%
residual activity (TEK (human); compound 1.0 µM): 11%
residual activity (STK33 (human); compound 0.1 µM): 30%
residual activity (STK33 (human); compound 1.0 µM): 23%
residual activity (TESK1 (human); compound 0.1 µM): 59%
residual activity (TESK1 (human); compound 1.0 µM): 24%
residual activity (ZAP70 (human); compound 0.1 µM): 54%
residual activity (ZAP70 (human); compound 1.0 µM): 22%
residual activity (TLK1 (human); compound 0.1 µM): 79%
residual activity (TLK1 (human); compound 1.0 µM): 39%
residual activity (TSSK1B (human); compound 0.1 µM): 31%
residual activity (TSSK1B (human); compound 1.0 µM): 5%
residual activity (EIF2AK3 (human); compound 1.0 µM): 31%
residual activity (IRAK1 (human); compound 0.1 µM): 19%
residual activity (IRAK1 (human); compound 1.0 µM): 5%
SMILES: COc1ccc(-n2ncc3cnc(Nc4cc(OC)c(OC)c(OCCCN5CCN(C)CC5)c4)nc32)cc1

residual activity (PRKCG (human); compound 1.0 µM): 81%
residual activity (PRKCG (human); compound 10.0 µM): 85%
residual activity (PTK6 (human); compound 1.0 µM): 99%
residual activity ([1]; compound 1.0 µM): 96%
residual activity ([1]; compound 10.0 µM): 80%
residual activity (STK16 (human); compound 1.0 µM): 46%
residual activity (STK16 (human); compound 10.0 µM): 47%
residual activity (ABL1 (human); compound 1.0 µM): 96%
residual activity (ABL1 (human); compound 10.0 µM): 89%
residual activity (MYLK (human); compound 1.0 µM): 101%
residual activity (MYLK (human); compound 10.0 µM): 79%
residual activity (TEK (human); compound 1.0 µM): 78%
residual activity (TEK (human); compound 10.0 µM): 67%
residual activity (STK33 (human); compound 1.0 µM): 101%
residual activity (STK33 (human); compound 10.0 µM): 89%
residual activity (ZAP70 (human); compound 1.0 µM): 104%
residual activity (TLK1 (human); compound 1.0 µM): 86%
residual activity (TLK1 (human); compound 10.0 µM): 94%
residual activity (EIF2AK3 (human); compound 1.0 µM): 94%
residual activity (EIF2AK3 (human); compound 10.0 µM): 88%
residual activity (IRAK1 (human); compound 1.0 µM): 106%
residual activity (IRAK1 (human); compound 10.0 µM): 102%
SMILES: Cc1nc(-c2ccc(OCC(C)C)c(C#N)c2)sc1C(=O)O

residual activity (TTBK1 (human); compound 0.1 µM): 78%
residual activity (TTBK1 (human); compound 1.0 µM): 100%
residual activity (TTBK1 (human); compound 10.0 µM): 81%
residual activity (PRKCG (human); compound 0.1 µM): 85%
residual activity (PRKCG (human); compound 1.0 µM): 104%
residual activity (PRKCG (human); compound 10.0 µM): 99%
residual activity (PTK6 (human); compound 0.1 µM): 10%
residual activity (PTK6 (human); compound 1.0 µM): 4%
residual activity (PTK6 (human); compound 10.0 µM): 8%
residual activity ([1]; compound 0.1 µM): 96%
residual activity ([1]; compound 1.0 µM): 96%
residual activity ([1]; compound 10.0 µM): 82%
residual activity (STK16 (human); compound 0.1 µM): 99%
residual activity (STK16 (human); compound 1.0 µM): 117%
residual activity (STK16 (human); compound 10.0 µM): 104%
residual activity (ABL1 (human); compound 0.1 µM): 87%
residual activity (ABL1 (human); compound 1.0 µM): 80%
residual activity (ABL1 (human); compound 10.0 µM): 39%
residual activity (MYLK (human); compound 0.1 µM): 79%
residual activity (MYLK (human); compound 1.0 µM): 90%
residual activity (MYLK (human); compound 10.0 µM): 44%
residual activity (TEK (human); compound 0.1 µM): 71%
residual activity (TEK (human); compound 1.0 µM): 34%
residual activity (TEK (human); compound 10.0 µM): 9%
residual activity (STK33 (human); compound 0.1 µM): 97%
residual activity (STK33 (human); compound 1.0 µM): 84%
residual activity (TESK1 (human); compound 0.1 µM): 69%
residual activity (TESK1 (human); compound 1.0 µM): 71%
residual activity (TESK1 (human); compound 10.0 µM): 38%
residual activity (ZAP70 (human); compound 0.1 µM): 93%
residual activity (ZAP70 (human); compound 1.0 µM): 107%
residual activity (ZAP70 (human); compound 10.0 µM): 101%
residual activity (TLK1 (human); compound 1.0 µM): 99%
residual activity (TSSK1B (human); compound 0.1 µM): 105%
residual activity (TSSK1B (human); compound 1.0 µM): 108%
residual activity (TSSK1B (human); compound 10.0 µM): 68%
residual activity (EIF2AK3 (human); compound 0.1 µM): 110%
residual activity (EIF2AK3 (human); compound 1.0 µM): 81%
residual activity (EIF2AK3 (human); compound 10.0 µM): 28%
residual activity (IRAK1 (human); compound 0.1 µM): 108%
residual activity (IRAK1 (human); compound 1.0 µM): 115%
SMILES: C=CC(=O)N1CCC[C@@H](n2nc(-c3ccc(Oc4ccccc4)cc3)c3c(N)ncnc32)C1

— the kinase profiling compilation of Christmann-Franck et al. (2016)
